Assay results published in US20090047243A1, “COMBINATIONS FOR THE TREATMENT OF B-CELL PROLIFERATIVE DISORDERS” (priority 2007, published 2009).

Tests used:
[1] = system: human multiple myeloma cells (MM.1S); experiment: Anti-proliferation assay (ATPLite, 72 h); type: cell-based; parameters: key to synergy score / synergy (score), PDEi × HE-NECA: S = lnfX·lnfY·ΣIdata(Idata−ILoewe), volume over Loewe additivity
Procedure: (§1) ANBL6 and INA-6 culture media was also supplemented with 10 ng/ml IL-6. […] MM.1S, MM.1R, OCI-ly10, Karpas 422, and SU-DHL6 cells were provided by the Dana Farber Cancer Institute. H929, RPMI-8226, GA-10, and Farage cells were from ATCC (Cat #'s CCL-155, CRL-9068, CRL-2392 and CRL-2630 respectively). MOLP-8, EJM, KSM-12-PE, and OPM2 were from DSMZ. The ANBL6 and INA-6 cell lines were provided by the M. D. Anderson Cancer Research Center. Compounds were prepared in DMSO at 1000× the highest desired concentration. Master plates were generated consisting of serially diluted compounds in 2- or 3-fold dilutions in 384-well format. For single agent dose response curves, the master plates consisted of 9 individual compounds at 12 concentrations in 2- or 3-fold dilutions. For combination matrices, master plates consisted of individual compounds at 6 or 9 concentrations at 2- or 3-fold dilutions. […] To obtain combination data, two master plates were diluted into the assay plates. […] Thirty microliters of ATPLite (Perkin Elmer) at room temperature was then added to each well. […] Measurements were taken at the top of the well using a luminescence aperture and a read time of 0.1 seconds per well. The percent inhibition (% I) for each well was calculated using the following formula: % I=[(avg. untreated wells-treated well)/(avg. untreated wells)]×100. […] Negative inhibition values result from local variations in treated wells as compared to untreated wells. […] The uncertainty of each fitted parameter was estimated from the range over which the change in reduced chi-squared was less than one, or less than minimum reduced chi-squared if that minimum exceeded one, to allow for underestimated σI errors. Single agent curve data were used to define a dilution series for each compound to be used for combination screening in a 6×6 matrix format. […] The Loewe additivity model was used to quantify combination effects. […] A “Synergy Score” was also used, where the Synergy Score S=log fX log fY ΣIdata(Idata-ILoewe), summed over all non-single-agent concentration pairs, and where log fX,Y is the natural logarithm of the dilution factors used for each single agent. This effectively calculates a volume between the measured and Loewe additive response surfaces, weighted towards high inhibition and corrected for varying dilution factors. An uncertainty σS was calculated for each synergy score, based on the measured errors for the Idata values and standard error propagation.

[2] = system: H929 multiple myeloma cell line; experiment: Anti-proliferation assay (ATPLite, 72 h); type: cell-based, human; parameters: key: S = lnfX·lnfY·ΣIdata(Idata−ILoewe), volume over Loewe additivity; details: H929
Procedure: as §1

[3] = MM.1S, compared among four adenosine receptor antagonists
[4] = PDE inhibitor crossed with (S) ENBA
[5] = PDE inhibitor crossed with Chloro-IB-MECA
[6] = PDE inhibitor crossed with HE-NECA
[7] = PDE inhibitor crossed with (S) ENBA, MM.1S
[8] = PDE inhibitor crossed with Chloro-IB-MECA, MM.1S
[9] = PDE inhibitor crossed with HE-NECA, MM.1S

## C[C@@H]1C[C@H]2[C@@H]3CCC4=CC(=O)C=C[C@]4(C)[C@@]3(F)[C@@H](O)C[C@]2(C)[C@@]1(O)C(=O)CO [dexamethasone]
[1]; Homo sapiens, MM1.S, 72 h, MM.1S, 72 h, +IL-6 (10 ng/ml)
  IC50: 61.7 nM
[1]; Homo sapiens, MM1.S, 72 h, MM.1S, no IL-6
  IC50: 179 nM
[1]; MM.1S, 10 ng/ml IL-6 vs no IL-6
  change in IC50 when cultured in the presence of IL-6: 2.9 fold

## Nc1nc2c(cnn2CCc2ccccc2)c2nc(-c3ccco3)nn12 [SCH 58261]
[1]; MM.1S, 72 h, antagonist SCH 58261 at 78 nM
  blocking of chloro-IB-MECA antiproliferative activity: > 50%
[1]; MM.1S, 72 h, SCH 58261 78 nM, MRS 1523 183 nM, DPCPX 178 nM, MRS 1574 175 nM
  antagonist effect on (S)-ENBA inhibition of cell growth: most active of the antagonists
[1]; MM.1S, antagonist concentration increased 2-fold
  blocking of chloro-IB-MECA antiproliferative activity: > 70%
[1]; [3]
  antagonist effect on chloro-IB-MECA crossed with trequinsin: most active compound
  antagonist effect on synergy of (S)-ENBA crossed with trequinsin: most active compound

## CNC(=O)[C@H]1O[C@@H](n2cnc3c(NCc4cccc(I)c4)nc(Cl)nc32)[C@H](O)[C@@H]1O.COc1cc2c(cc1OC)-c1cc(=Nc3c(C)cc(C)cc3C)n(C)c(=O)n1CC2 [CI-IB-MECA + Trequinsin]
[1]; after addition of 174 nM DPCPX, CI-IB-MECA 2.96 μM, Trequinsin conc. (μM)
  percent inhibition of ATP in MM.1S cells: 94%
[1]; no adenosine receptor antagonist added, CI-IB-MECA 1.48 μM, Trequinsin conc. (μM)
  percent inhibition of ATP in MM.1S cells: 93%

## CCCn1c(=O)c2[nH]c(-c3ccc(OCC(=O)Nc4ccc(C#N)cc4)cc3)nc2n(CCC)c1=O [MRS 1574]
[1]; Homo sapiens, MM1.S, after addition of 175 nM MRS 1754, Cl-IB-MECA 0 μM, Trequinsin conc. (μM), read-out: Percent inhibition of ATP in MM.1S cells
  inhibition at 0.175 µM: -13%

## CCCCC#Cc1nc(N)c2ncn([C@@H]3O[C@H](C(=O)NCC)[C@@H](O)[C@H]3O)c2n1.COc1ccc(Cc2nccc3cc(OC)c(OC)cc23)cc1OC [HE-NECA + Papaverine]
[1]; 10 ng/mL IL-6, Papaverine 20.7 μM, HE-NECA conc. (μM)
  percent inhibition of ATP in MM.1S cells: 97%
[1]; no IL-6, Papaverine 20.7 μM, HE-NECA conc. (nM)
  percent inhibition of ATP in MM.1S cells: 95%

## CCCc1nn(C)c2c(=O)[nH]c(-c3cc(S(=O)(=O)N4CCN(C)CC4)ccc3OCC)nc12 [Sildenafil]
[2]; [4]
  synergy score: 0.03
[2]; PDE inhibitor crossed with ADAC
  synergy score: 0.14
[2]; [5]
  synergy score: 0.03
[2]; [6]
  synergy score: 0
[1]; [7]
  synergy score: 0
[1]; PDE inhibitor crossed with ADAC, MM.1S
  synergy score: 0
[1]; [8]
  synergy score: 0
[1]; [9]
  synergy score: 0

## COc1cc2c(cc1OC)-c1cc(=Nc3c(C)cc(C)cc3C)n(C)c(=O)n1CC2.NCCNC(=O)Cc1ccc(NC(=O)Cc2ccc(Nc3ncnc4c3ncn4[C@@H]3O[C@H](CO)[C@@H](O)[C@H]3O)cc2)cc1 [ADAC + Trequinsin]
[1]; 10 ng/mL IL-6, ADAC 1.17 μM, Trequinsin conc. (μM)
  percent inhibition of ATP in MM.1S cells: 94%
[1]; 10 ng/mL IL-6, ADAC 3.51 μM, Trequinsin conc. (μM)
  percent inhibition of ATP in MM.1S cells: 93%
[1]; 10 ng/mL IL-6, ADAC 10.5 μM, Trequinsin conc. (μM)
  percent inhibition of ATP in MM.1S cells: 93%
[1]; 10 ng/mL IL-6, ADAC 31.6 μM, Trequinsin conc. (μM)
  percent inhibition of ATP in MM.1S cells: 93%
[1]; 10 ng/mL IL-6, ADAC […], Trequinsin conc. (μM)
  percent inhibition of ATP in MM.1S cells: 95%

## CCCOc1ccccc1-c1nc2nn[nH]c2c(=O)[nH]1 [Zaprinast]
[2]; [4]
  synergy score: 0.05
[2]; [5]
  synergy score: 0.03
[2]; [6]
  synergy score: 0.13
[1]; [7]
  synergy score: 0.16
[1]; [8]
  synergy score: 0.05
[1]; [9]
  synergy score: 0.025

## CCCCC#Cc1nc(N)c2ncn([C@@H]3O[C@H](C(=O)NCC)[C@@H](O)[C@H]3O)c2n1.COc1cc2c(cc1OC)-c1cc(=Nc3c(C)cc(C)cc3C)n(C)c(=O)n1CC2 [HE-NECA + Trequinsin]
[1]; 10 ng/mL IL-6, Trequinsin 3.39 μM, HE-NECA conc. (nM)
  percent inhibition of ATP in MM.1S cells: 94%
[1]; 10 ng/mL IL-6, Trequinsin 30.5 μM, HE-NECA conc. (nM)
  percent inhibition of ATP in MM.1S cells: 100%
[1]; no IL-6, Trequinsin 30.5 (unit not given), HE-NECA conc. (nM)
  percent inhibition of ATP in MM.1S cells: 98%

## CCCn1c(=O)c2[nH]c(C3CCCC3)nc2n(CCC)c1=O [DPCPX, 8-cyclopentyl-1,3-dipropylxanthine]
[1]; Homo sapiens, MM1.S, after addition of 174 nM DPCPX, CI-IB-MECA 0 μM, Trequinsin conc. (μM), read-out: Percent inhibition of ATP in MM.1S cells
  inhibition at 0.174 µM: -7.5%

## CNC(=O)[C@H]1O[C@@H](n2cnc3c(NCc4cccc(I)c4)nc(Cl)nc32)[C@H](O)[C@@H]1O.COc1cc2c(cc1OC)-c1cc(=Nc3c(C)cc(C)cc3C)n(C)c(=O)n1CC2 [Cl-IB-MECA + Trequinsin]
[1]; after addition of 170 nM MRS 1523, Cl-IB-MECA 2.96 μM, Trequinsin conc. (μM)
  percent inhibition of ATP in MM.1S cells: 93%
